In PMC3135573 (Analytical biochemistry, 2011):
Like-named read-outs stand apart in the source and are kept apart here. Marks after values point to notes of the source that are not given here.

Experiments:
BioA [1] = target: T1, BioA (Mycobacterium tuberculosis, UniProt P9WQ81); format: biochemical
BioA [2] = target: T1, BioA; conditions: cited from earlier work
BioA [3] = target: T1, BioA; conditions: biodisc assay ref 37; cited from earlier work

T1 sequence (P9WQ81 whole entry, looked up): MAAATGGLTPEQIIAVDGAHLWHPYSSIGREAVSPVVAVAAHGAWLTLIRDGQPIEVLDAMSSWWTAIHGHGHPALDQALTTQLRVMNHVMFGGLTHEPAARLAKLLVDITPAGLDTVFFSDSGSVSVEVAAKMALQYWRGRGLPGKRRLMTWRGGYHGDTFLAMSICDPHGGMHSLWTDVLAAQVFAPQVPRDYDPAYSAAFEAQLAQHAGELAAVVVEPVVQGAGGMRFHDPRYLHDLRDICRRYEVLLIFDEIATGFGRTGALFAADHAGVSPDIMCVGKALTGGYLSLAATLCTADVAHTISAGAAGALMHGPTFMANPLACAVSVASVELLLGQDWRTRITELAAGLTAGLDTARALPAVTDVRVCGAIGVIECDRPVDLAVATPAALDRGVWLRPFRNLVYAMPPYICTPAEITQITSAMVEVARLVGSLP

Compound: O[C@@H](CS)[C@@H](O)CS (racemic) [DTT, dithiothreitol]
- decrease of the initial velocity (BioA [1]; addition of 2 mM DTT): 18%

Compound: C[C@@H](N)C(=O)CCCCCC(=O)O [(R)-KAPA]
- inhibition of BioA (in words) (BioA [2]): potent inhibitor of BioA

Compound: C[C@H](N)C(=O)CCCCCC(=O)O.Cl [KAPA, (S)-8-Amino-7-oxononanoic acid hydrochloride salt]
- KmKAPA (BioA [1]; this study, 50 nM BioA, 5 mM SAM, KAPA 0–12.5 μM): 1.9 ± 0.1 µM
- KmKAPA (BioA [3]): 1.3 ± 0.3 ^a μM

Compound: C[S+](CC[C@H](N)C(=O)[O-])C[C@H]1O[C@@H](n2cnc3c(N)ncnc32)[C@H](O)[C@@H]1O (stereo partly drawn) [SAM, S-adenosyl methionine]
- KmSAM (BioA [1]; this study, 50 nM BioA, 12.5 μM KAPA, SAM 0.12–15 mM): 1.17 ± 0.06 mM
- KmSAM (BioA [3]): 1.4 ± 0.3 ^a mM
